Measurements reported in patent US6878690B2, “Compounds and methods” (PharmAxis Pty Ltd., priority 2000, dated 2005).

Test system: myelin basic protein (MBP)-specific T lymphocyte cell lines
Assay: Inhibition of T-lymphocyte migration across rat brain endothelial cell layer (Transwell, 51Cr-labelled cells)
Format: cell-based, Lewis rats
Details: test substance 10 mmolar in upper well; 6 hours; in comparison with the negative control (glucose 6-phosphate); triplicate
Text: Vascular endothelial cells were isolated from rat brain capillaries taken from 6 to 8 week old Lewis rats according to the method of Risau et al. (Risau, W., Engelhardt, B., and Wekerle, H., (1990). Journal of Cell Biology, vol 110, p 1757-1766, which is incorporated herein by reference). Colonies of endothelial cells were purified from astroglial cells and pericytes by a Thy1.1-mediated complement lysis also after the method of Risau et al. (vide supra). The endothelial colonies, according to methods known in the art, were grown in Dulbecco's minimum essential medium (DMEM) high glucose supplemented, with 20% fetal calf serum (FCS), glutamine, pyruvate, nonessential amino acids, 4-(2-hydroxyethyl)-1-piperazine ethane sulfonic acid buffer (HEPES), kanamycin, amphotericin, heparin (all from Gibco) and 150 micrograms/ml endothelial growth supplement (Collaborative Biomedical Products). Upon reaching confluence, the endothelial cultures were washed with 0.2% EDTA in phosphate buffered saline (PBS), trypsinized (Trypsin-EDTA, 0.1% final concentration, Gibco), washed and again incubated with anti-Thy1.1 antibody for 40 minutes, washed and incubated with complement sufficient to lyse all Thy1.1+ cells (Behringwerke, AG, Marburg, Germany) at room temperature, washed and plated on matrigel-coated 6.5 mm Transwells, […] (Corning Costar Corporation, Cambridge, Mass.). The endothelial cell characteristics and confluence of the monolayer were checked by measuring the electrical resistance (World Precision Instruments, New Haven, U.S.A., model EVOM-G) and by staining with FITC-labeled phalloidin (Sigma). In order to study the effect of the agents of the present invention on T lymphocyte migration, myelin basic protein (MBP)-specific T lymphocyte cell lines were generated according to the method of Ben-Nun et al. (Ben-Nun, A., Wekerle, H. and Cohen, I. R., 1981). The rapid isolation of clonable antigen-specific T lymphocyte lines capable of mediating autoimmune encephalomyelitis. European Journal of Immunology. 1981, 11(3), 195-199; incorporated herein by reference) from the lymph nodes of Lewis rats that had been immunised with MBP in Freund's complete adjuvant. These cells were used for migration studies during the first 4 days of their propagation in IL-2 containing medium, following antigen (MBP) restimulation in the presence of antigen-presenting cells from irradiated spleen cells or thymocytes taken from normal Lewis rats. The antigen-activated T lymphocytes were radio-labelled with sodium chromate (^51Cr, 37 MBq/ml, Amersham, UK) for 30 minutes at 37° C. with occasional agitation, they were then washed three times with the DMEM culture medium and placed into the upper chamber of the Transwells at 5×10^5 cells in 100 microliters of migration medium. Test and control substance were included in the upper wells at final concentrations of 0.1, 1 and 10 mM. Cell migration was monitored by light microscopy in order to gauge progress of the experiment. […] The combined material was transferred into scintillation vials and the radioactivity of each tube determined by counting for 1 minute in a Packard Auto-Gamma 5650 (IL, USA) gamma counter. Each test and the control substance (glucose 6-phosphate) and no treatment were assessed in triplicate. […]

CCCC1OC(COP(=O)(O)O)C(O)C(O)C1O (stereo not shown) [phosphoric acid mono-(6-propyl-3,4,5-trihydroxy-tetrahydro-pyran-2-ylmethyl) ester]
% inhibition ± SEM: 64 ± 4%
